Measured values taken from patent US20180049996A1, “THERAPEUTIC AGENT FOR CHRONIC RESPIRATORY DISEASE AND COMPOSITION FOR INHIBITING CARDIAC FIBROSIS” (NIPPON HYPOX LABORATORIES INCORPORATED, priority 2015, published 2018).

What was measured:
[1] = system: Pulmonary Fibrosis Induced by Bleomycin; assay: Histopathologic examination of lungs, pulmonary fibrosis induced by bleomycin; format: in vivo, male SD rats; conditions: for Severity score: Alveolar space, Bleeding / Severity score: Alveolar space, Macrophage accumulation / Severity score: Alveolar space, Protein exudation / Severity score: Alveolar wall, Fibroblast accumulation / Severity score: Alveolar wall, Fibrosis of interstitial tissue / Severity score: Alveolar wall, Interstitial edema / Severity score: Alveolar wall, Mononuclear cell infiltration / Severity score: Circumvascular region, Perivascular edema / Severity score: Circumvascular region, Plasma cell infiltration / Severity score: Peribronchial and peribronchiolar regions, Fibrosis of interstitial tissue / Severity score: Peribronchial and peribronchiolar regions, Lymphoid follicle hyperplasia / Severity score: Type II alveolar epithelial cell, Adenomatous hyperplasia / Severity score: Type II alveolar epithelial cell, Atypia and dysplasia: day 20 after bleomycin
Procedure: (§1) Bleomycin is used to produce disease-model animals of interstitial pneumonia. The bleomycin and 2,3,5-trimethylhydroquinone-1-hexyl ether (HTHQ) as the hydroquinone derivative represented by the general formula (1) described above of the present invention were simultaneously administered to male SD rats of 10 week old after birth to examine the effect of the action. The test groups consisted of the control group to which sterile saline was administered; test group 1 to which bleomycin (7.5 mg/kg body weight) alone was administered; test group 2 to which bleomycin (7.5 mg/kg body weight) and HTHQ (50 mg/kg body weight/day) were administered in combination; and test group 3 to which bleomycin (7.5 mg/kg body weight) and HTHQ (200 mg/kg body weight/day) were administered in combination.
(§2) In test groups 1 to 3, bleomycin was orally administered in a single dose. In test groups 2 and 3, 2,3,5-trimethylhydroquinone-1-hexyl ether (HTHQ) was daily orally administered for 10 or 20 days starting from 24 h after the administration of bleomycin. In test group 1, olive oil, which was used as a solvent of HTHQ, was daily orally administered at 10 mL/kg/day starting from 24 h after the administration of bleomycin. The number of animals in each group was 16. 8 animals of each group were sacrificed on days 10 and 20 after the administration of bleomycin and measurement of body weight, lung autopsy, histopathologic examination of lungs and bronchoalveolar lavage examination were conducted.
The main lung lesions observed in the rats in test group 1 (the bleomycin-single administration group) on day 10 after the administration were the peribronchial and peribronchiola enlargement of alveoli, the hyperplasia of the alveolar wall, the infiltration of monocytes and lymphocytes in alveolar walls and interstitial tissue, and the exudation of alveolar macrophage into alveolar spaces. These lesions were alleviated in rats in test groups 2 and 3 (the HTHQ-administered groups) compared to the tissue in test group 1.
The result of the histopathologic examination of lungs of the control group and the test groups on day 20 after the administration of bleomycin is shown in Table 1 below. “−” indicates “not found”, “+” indicates “mild”, “++” indicates “moderate”, and “+++” indicates “severe” in severity scores. In test group 1 (the bleomycin-single administration group), the hyperplasia and fibrosis of peribronchial and adjacent alveolar walls became remarkable compared to the tissue on day 10 after the administration and the morphology of alveolus almost disappeared due to the infiltration of lymphocytes and neutrophils. The alveolar macrophages infiltrated within alveolar spaces were buried in surrounding tissues.

[2] = system: Pulmonary Fibrosis Induced by Bleomycin; assay: Body weight and relative weight of lungs, pulmonary fibrosis induced by bleomycin; format: in vivo, male SD rats; conditions: test groups 2 and 3: bleomycin 7.5 mg/kg + HTHQ 50 or 200 mg/kg/day oral; day 20; compared to bleomycin-single group, p<0.05
Procedure: as §1, §2
The body weight of the rats in the control group increased over time during the test period. […] The weight of the interstitial tissue of lungs tends to increase and the relative weight of lungs tends to rise when the tissue fibroses. […] Thus, it was expected that the degree of the progression of pulmonary fibrosis of the rats in test groups 2 and 3, to which HTHQ was administered, was less than the rats in test group 1.

[3] = system: Pulmonary Fibrosis Induced by Bleomycin; assay: Gross pathology of lungs, pulmonary fibrosis induced by bleomycin; format: in vivo, male SD rats; conditions: test groups 2 and 3: bleomycin 7.5 mg/kg + HTHQ 50 or 200 mg/kg/day oral; day 20
Procedure: as §1
as §2, with “8 animals of each group were sacrificed on days 10 and 20 after the administration of bleomycin and measurement of body weight, lung autopsy, histopathologic examination of lungs and bronchoalveolar lavage examination were conducted.” left out

[4] = system: Lung Inflammation Induced by Tobacco Smoke; assay: Histopathologic examination of lungs, COPD model; format: in vivo, C57BL/6N mice; conditions: HTHQ 10 and 20 mg/kg/day oral; tobacco smoke 10 days + LPS; compared to COPD model group
Procedure: 6 week old male SPF C57BL/6N mice, 20 to 25 g of body weight, were purchased from CORETEC INC. (South Korea).
The tests were conducted as follows. The mice in the COPD (chronic obstructive pulmonary disease) model group of the test groups were exposed to tobacco smoke for 1 hour per day (8 cigarettes/day) for 10 days and LPS (5 μg/50 μL/mouse) was intranasally administered to the mice on day 8 after the start of the tests. Roflumilast, the positive control substance, was orally administered to the mice in the positive control substance-administered group at 10 mg/kg body weight/day, and then they were exposed to tobacco smoke for 10 days starting from 1 hour after the administration of roflumilast, and LPS (5 μg/50 μL/mouse) was intranasally administered to the mice on day 8 after the start of the tests. Here, roflumilast is a selective phosphodiesterase 4 inhibitor and is a substance which is used as a therapeutic agent of COPD and asthma (approved in Europe and the United States, not approved in Japan). […] All the animals were euthanized on day 11 and bronchoalveolar lavage (BAL) examination and histopathologic examination of lungs were conducted. The mice in the normal control group and the test groups were fed sterile tap water and standard food for rodents during the test period. […]

[5] = Test group 2: bleomycin 7.5 mg/kg + HTHQ 50 mg/kg/day oral
[6] = Test group 3: bleomycin 7.5 mg/kg + HTHQ 200 mg/kg/day oral

## CCCCCCOc1cc(C)c(O)c(C)c1C [HTHQ, 2,3,5-trimethylhydroquinone-1-hexyl ether]
[1]; [5]
  Severity score: Alveolar space, Bleeding: +
  Severity score: Alveolar space, Macrophage accumulation: +
  Severity score: Alveolar space, Protein exudation: +
  Severity score: Alveolar wall, Fibroblast accumulation: ++
  Severity score: Alveolar wall, Fibrosis of interstitial tissue: ++
  Severity score: Alveolar wall, Interstitial edema: +
  Severity score: Alveolar wall, Mononuclear cell infiltration: ++
  Severity score: Circumvascular region, Perivascular edema: +
  Severity score: Circumvascular region, Plasma cell infiltration: +
  Severity score: Peribronchial and peribronchiolar regions, Fibrosis of interstitial tissue: +
  Severity score: Peribronchial and peribronchiolar regions, Lymphoid follicle hyperplasia: +
  Severity score: Type II alveolar epithelial cell, Adenomatous hyperplasia: ++
  Severity score: Type II alveolar epithelial cell, Atypia and dysplasia: +
[1]; [6]
  Severity score: Alveolar space, Bleeding: −
  Severity score: Alveolar space, Macrophage accumulation: +
  Severity score: Alveolar space, Protein exudation: ++
  Severity score: Alveolar wall, Fibroblast accumulation: +
  Severity score: Alveolar wall, Fibrosis of interstitial tissue: +
  Severity score: Alveolar wall, Interstitial edema: +
  Severity score: Alveolar wall, Mononuclear cell infiltration: ++
  Severity score: Circumvascular region, Perivascular edema: −
  Severity score: Circumvascular region, Plasma cell infiltration: −
  Severity score: Peribronchial and peribronchiolar regions, Fibrosis of interstitial tissue: +
  Severity score: Peribronchial and peribronchiolar regions, Lymphoid follicle hyperplasia: +
  Severity score: Type II alveolar epithelial cell, Adenomatous hyperplasia: +
  Severity score: Type II alveolar epithelial cell, Atypia and dysplasia: +
[1]; test groups 2 and 3: bleomycin 7.5 mg/kg + HTHQ 50 or 200 mg/kg/day oral, day 10, compared to test group 1
  histopathologic lung lesions: alleviated
[1]; test groups 2 and 3: bleomycin 7.5 mg/kg + HTHQ 50 or 200 mg/kg/day oral, day 20, compared to test group 1
  degree of histopathologic lung lesions: milder than test group 1
[2]
  relative weight of lungs: significantly low
[3]
  gross pathology of lungs (lesions): alleviated
[4]
  infiltration of inflammatory cells in peribronchial lung tissue (HE stain): significantly reduced in a dose-dependent manner
